How the values were obtained:
[1] = system: Trypanosoma brucei rhodesiense; assay: Antitrypanosomal activity against Trypanosoma brucei rhodesiense IL-1501 assessed as inhibition of parasitic growth incubated for 69 hrs by resazurin dye based fluorescence assay; format: functional, organism-based; conditions: IL-1501, 69 h
WI-38 = assay: Cytotoxicity against human WI-38 cells assessed as inhibition of cell proliferation incubated for 72 hrs by MTT assay; format: cell-based; conditions: WI-38, 72 h

Compound | IC50 [1] [µM] | IC50 (WI-38) [µM]
CC[C@H](C)[C@H](NC)C(=O)N1CCCC1C(=O)N1C(=O)C=C(OC)[C@@H]1C(C)C (single isomer, unassigned) | 24 | > 50
COC1=CC(=O)N(C(=O)C2CCCN2)[C@H]1C(C)C (single isomer, unassigned) | 33 | > 50
CC[C@H](C)[C@@H](C(=O)N1CCCC1C(=O)N1C(=O)C=C(OC)[C@@H]1C(C)C)N(C)C(=O)[C@@H]1CCCN1 (single isomer, unassigned) | 15 | > 50
CC[C@H](C)[C@@H](C(=O)N1CCCC1C(=O)N1C(=O)C=C(OC)[C@@H]1C(C)C)N(C)C(=O)[C@@H]1CCCN1C(=O)[C@@H](NC)C(C)C (single isomer, unassigned) | 17 | > 50
N=C(N)c1ccc(OCCCCCOc2ccc(C(=N)N)cc2)cc1 [PENTAMIDINE] | 0.005 | –

Further molecules by falling IC50 [1], results first:

IC50 [1] [µM] | Compound | IC50 (WI-38) [µM]
35 | COC1=CC(=O)N[C@H]1C(C)C | > 50
1.8 | CC[C@H](C)[C@@H](C(=O)N1CCC[C@@H]1C(=O)N1C(=O)C=C(OC)[C@@H]1C(C)C)N(C)C(=O)[C@@H]1CCCN1C(=O)[C@H](C(C)C)N(C)C(=O)[C@@H](Cc1ccccc1)NC(=O)[C@H](Cc1ccccc1)N(C)C | > 20

From ChEMBL document CHEMBL5055641, “First Total Synthesis and Structure-Activity Relationship of Iheyamide A, an Antitrypanosomal Linear Peptide Isolated from a Dapis sp. Marine Cyanobacterium” (J Nat Prod, 2021)
